Assay results published in patent publication US20060069074A1, “Genetic predictor of efficacy of anti-asthmatic agents for improving pulmonary function” (priority 2004, published 2006).

How the values were obtained:
[1] = test system: β2-adrenergic receptor (B2AR); settings: cited from earlier work
[2] = Double-blind randomized crossover trial of montelukast and fluticasone propionate in children with asthma; FEV1 response by B2AR diplotype; format: in vivo, human; settings: all children, 8-week treatment periods
Text: (§1) Briefly, 144 children ages 6 to 17 years with mild to moderate persistent asthma were enrolled. […] Children with severe asthma were excluded. Strunk R, et al., supra. Informed consent, approved by the Institutional Review Board of the subject's respective study institution, was obtained from a parent/guardian.

[3] = Baseline methacholine challenge (PC20) by B2AR diplotype; format: in vivo, human; settings: for Methacholine PC20: geometric mean (95% CI), corrected for baseline percent predicted FEV1
Text: as §1

## CC(C)(C)NCC(O)c1ccc(O)c(CO)c1 (stereo not shown) [albuterol]
[1]; carriers of the Arg16 allele vs carriers of the Gly16 allele, subjects naïve to B2AR-agonists
  Immediate bronchial responses to albuterol: higher immediate responses
[1]; diplotype 4/6, Drysdale et al.
  Bronchodilator response (improvement in FEV1) to albuterol: highest response
[1]; homozygotes for Arg16 compared with carriers of the other two genotypes
  Lung function on regularly scheduled albuterol: significant deterioration in lung function

## CCC(=O)O[C@]1(C(=O)SCF)[C@H](C)C[C@H]2[C@@H]3C[C@H](F)C4=CC(=O)C=C[C@]4(C)[C@@]3(F)[C@@H](O)C[C@@]21C [fluticasone, fluticasone propionate]
[2]
  Fraction of children with FEV1 response to fluticasone but not to montelukast: one-fourth

## CC(=O)OC(C)C[N+](C)(C)C (stereo not shown) [methacholine]
[3]; 4/4 diplotype, n=18
  Methacholine PC20: 0.6 (0.3, 1.1) mg/ml
[3]; all other diplotypes, n=106
  Methacholine PC20: 1.4 (1.1, 1.7) mg/ml
[3]; lower in the 4/4 diplotype than in the other diplotypes, adjusted for baseline percent predicted FEV1, p=0.015
  Dose of methacholine causing a 20% fall in FEV1, difference between groups: 1.3 doubling doses
